Measurements published in ChEMBL document CHEMBL1201862, “PubChem BioAssay data set” (2004).
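Step 1: Grow cells in 96-well plates. Step 2: Expose to compound for 48 hours at 5 concentrations. Step 3: Interpolate endpoints linearly; if unreached, use highest concentration. Here, GI50 denotes the concentration required for 50% inhibition of growth.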 Activity calls are given as the source filed them. No stated cut-off is given here; in the data, active = GI50 up to about 1.1 µM and inactive = higher.

Experiments:
Experiment in all cases: NCI tumour cell line growth inhibition, 48 h
MCF7 = system: MCF7
SN12C = system: SN12C
786-0 = system: 786-0
OVCAR-3 = system: OVCAR-3
KM12 = system: KM12
A498 = system: A498
SK-MEL-5 = system: SK-MEL-5
MDA-MB-435 = system: MDA-MB-435
SK-MEL-28 = system: SK-MEL-28
U-251 = system: U-251
SF-295 = system: SF-295
MDA-N = system: MDA-N
UACC-62 = system: UACC-62
BT-549 = system: BT-549
DU-145 = system: DU-145
PC-3 = system: PC-3
SW-620 = system: SW-620
SF-268 = system: SF-268
SK-OV-3 = system: SK-OV-3
TK-10 = system: TK-10

Measured: GI50

Cc1cn(C(C)OCCN2C(=O)c3ccccc3C2=O)c(=O)[nH]c1=O (stereo not drawn)
inactive: MCF7 > 100 µM | SN12C > 100 µM | 786-0 > 100 µM | OVCAR-3 > 100 µM | KM12 > 100 µM | A498 > 100 µM | SK-MEL-5 > 100 µM | MDA-MB-435 > 100 µM | SK-MEL-28 > 100 µM | U-251 > 100 µM | SF-295 > 100 µM | MDA-N > 100 µM | UACC-62 > 100 µM | BT-549 > 100 µM | DU-145 > 100 µM | PC-3 > 100 µM | SW-620 > 100 µM

COc1cccc(C2c3cc4c(cc3OC(C)(N3CCCC3)C2C)OCO4)c1OC (stereo not drawn)
inactive: MCF7 11.9 µM | SF-268 10.9 µM | SN12C 6.52 µM | 786-0 14.5 µM | OVCAR-3 5.07 µM | KM12 6.78 µM | SK-MEL-5 13.4 µM | MDA-MB-435 14.8 µM | SK-OV-3 5.82 µM | SK-MEL-28 25.9 µM | U-251 5.25 µM | SF-295 9.1 µM | MDA-N 10.6 µM | UACC-62 16.9 µM | BT-549 6.67 µM | TK-10 13.7 µM | DU-145 10 µM | PC-3 5.11 µM | SW-620 6.89 µM

O=C1COc2cc(N3CCN(c4cccc(C(F)(F)F)c4)CC3)ccc2N1
inactive: MCF7 > 100 µM | SF-268 > 100 µM | SN12C > 100 µM | 786-0 > 100 µM | OVCAR-3 > 100 µM | KM12 > 100 µM | SK-MEL-5 > 100 µM | MDA-MB-435 > 100 µM | SK-OV-3 > 100 µM | SK-MEL-28 > 100 µM | U-251 > 100 µM | SF-295 > 100 µM | MDA-N > 100 µM | UACC-62 > 100 µM | BT-549 > 100 µM | TK-10 > 100 µM | DU-145 > 100 µM | PC-3 > 100 µM | SW-620 > 100 µM

OCC1OC(n2cnc3cccnc32)CC1O (stereo not drawn)
inactive: MCF7 > 100 µM | SF-268 > 100 µM | SN12C > 100 µM | 786-0 > 100 µM | OVCAR-3 > 100 µM | KM12 > 100 µM | A498 > 100 µM | SK-MEL-5 > 100 µM | MDA-MB-435 > 100 µM | SK-MEL-28 > 100 µM | U-251 > 100 µM | SF-295 > 100 µM | MDA-N > 100 µM | UACC-62 > 100 µM | BT-549 > 100 µM | TK-10 > 100 µM | DU-145 > 100 µM | PC-3 > 100 µM | SW-620 > 100 µM

CC(=O)OC1C[C@@H](C)C2(CC(c3ccoc3)OC2=O)C2CCC(O)C3(CO3)C12CO (stereo partly drawn)
inactive: MCF7 > 100 µM | SF-268 > 100 µM | SN12C > 100 µM | 786-0 > 100 µM | OVCAR-3 > 100 µM | KM12 > 100 µM | A498 > 100 µM | SK-MEL-5 > 100 µM | MDA-MB-435 > 100 µM | SK-MEL-28 > 100 µM | U-251 > 100 µM | SF-295 > 100 µM | MDA-N > 100 µM | UACC-62 > 100 µM | BT-549 > 100 µM | TK-10 > 100 µM | DU-145 > 100 µM | PC-3 > 100 µM | SW-620 > 100 µM

CCOC(=O)c1nc2ccccc2nc1Nc1ccc(C(=O)OC)s1
inactive: MCF7 > 100 µM | SF-268 > 100 µM | SN12C > 100 µM | 786-0 > 100 µM | OVCAR-3 > 100 µM | KM12 > 100 µM | A498 > 100 µM | SK-MEL-5 > 100 µM | MDA-MB-435 > 100 µM | SK-MEL-28 > 100 µM | U-251 > 100 µM | SF-295 > 100 µM | MDA-N > 100 µM | UACC-62 > 100 µM | BT-549 > 100 µM | TK-10 > 100 µM | DU-145 > 100 µM | PC-3 > 100 µM | SW-620 > 100 µM

C[C@@H]1CCC2[C@@H](C)C(=O)O[C@@H]3C4C[C@@H]1[C@@]23OO[C@@]4(C)O (stereo partly drawn)
inactive: MCF7 62.8 µM | SF-268 76 µM | SN12C > 100 µM | 786-0 > 100 µM | OVCAR-3 > 100 µM | KM12 > 100 µM | A498 > 100 µM | SK-MEL-5 2.81 µM | MDA-MB-435 72.6 µM | SK-MEL-28 > 100 µM | U-251 48.8 µM | SF-295 > 100 µM | MDA-N 55.3 µM | UACC-62 > 100 µM | BT-549 > 100 µM | TK-10 > 100 µM | DU-145 71.4 µM | PC-3 > 100 µM | SW-620 > 100 µM

CC1(C)OC2COC3([C@@H]4OC(C)(C)O[C@@H]4CO)OC(C)(C)OC3C2O1 (stereo partly drawn)
inactive: MCF7 > 100 µM | SN12C > 100 µM | 786-0 > 100 µM | OVCAR-3 > 100 µM | KM12 > 100 µM | A498 > 100 µM | SK-MEL-5 > 100 µM | MDA-MB-435 > 100 µM | SK-MEL-28 > 100 µM | U-251 > 100 µM | SF-295 > 100 µM | MDA-N > 100 µM | UACC-62 > 100 µM | BT-549 > 100 µM | DU-145 > 100 µM | PC-3 > 100 µM | SW-620 > 100 µM
